Data as given in patent EP0100673A2, “A method of enhancing neurofiber regrowth” (THE RESEARCH FOUNDATION OF STATE UNIVERSITY OF NEW YORK, priority 1982, dated 1984).

What was measured:
[1] = system: muscles of the operated hindlimb; experiment: Wet weight of hindlimb muscles after sciatic nerve severing and microsurgical repair; type: in vivo, rat; conditions: for Average Wet Weight (g) of Muscles: 12 mg/kg in 5% DMSO, bath + i.m. twice weekly; for % Weight (+)gain or (-)loss Treated vs. Control / % Weight (+) gain (-) loss Treated vs. control / % Weight (+)gain or (-)loss: muscle wet weight; for % Weight (+) gain (-) loss Treated vs. control: One Week; for % Weight (+)gain or (-)loss: Three Month, treated vs. control
Procedure: (§1) lwenty raty art anenthetizve with sel rompun (0.5 cc total volume). The right sciatic nerve is exposed and severed with microneuroscissors, and subsequently repaired microsurgically with 6-8 circumferential microsutures using 10-0 nylon. Immediately following surgery the treated animals receive 12 mg/kg Ac leupeptin in 5% DMSO (dimethylsulphoxide) as a bath on their sciatic nerve, 0.25 cc. total volume. Then the treated animals are injected intramuscularly in right hindlimb with 0.25 cc of a solution containing 12 mg/kg Ac leupeptin in 5% DMSO. Control animals receive the same surgical treatment, but the bath and intramuscular injection consist only of the solvent and 5% DMSO.
(§2) Thereafter, treated animals are injected twice weekly in the operated hindlimb with 12 mg/kg Ac leupeptin in 5% DMSO (0.25 cc total volume) for periods of 1 week, 1 month, two months, three months - and six months. Control animals are injected with 0.25 cc of 5% DMSO twice weekly in the operated hindlimb for the same time period.
(§3) Two treated and two control animals are assigned to each of the stated time periods.
(§4) All animals are sacrified by an overdose of pentobarbital, 1.0 cc total volume. The gastro- cnemius, soleus and extensor digitorum longus muscles of the operated hindlimb are execised from origin to insertion, weighed and then frozen in isopentane in liquid nitrogen […]. For light microscopy, cryostat sections are cut, placed on slides and stained with hematoxylin and eosin and/or ATPase histochemistry at pH's of 4.3 and 10.4. Myofiber diameters are determined by photographing hematoxylin and eosin sections at a constant magnification in the light microscope.

[2] = system: muscles of the operated hindlimb; experiment: Myofiber diameter by light microscopy after sciatic nerve severing and microsurgical repair; type: in vivo, rat; conditions: for Average Myofiber Diameter (µm) by Light Microscopy: 12 mg/kg in 5% DMSO, bath + i.m. twice weekly; for % Difference Treated vs. Control: myofiber diameter
Procedure: as §1, §2, §3, §4

[3] = One Month Treated, GASTROCNEMIUS
[4] = One Week Treated, GASTROCNEMIUS
[5] = Six Month Treated, GASTROCNEMIUS
[6] = Three Month Treated, GASTROCNEMIUS

`CC(=O)N[C@@H](CC(C)C)C(=O)N[C@@H](CC(C)C)C(=O)N[C@H](C=O)CCCNC(=N)N` [Ac leupeptin, acetyl-L-leu-L-leu-L-argininal] was tested, and the “Average Wet Weight (g) of Muscles” value ([1]; One Month Treated, E.D.L.) was 0.198 g, the “Average Wet Weight (g) of Muscles” value [1, 3] was “.954 g” and the “Average Wet Weight (g) of Muscles” value ([1]; One Month Treated, SOLEUS) was “.379 g”. The “Average Wet Weight (g) of Muscles” value ([1]; One Week Treated, E.D.L.) was 0.116 g, the “Average Wet Weight (g) of Muscles” value [1, 4] was 2.379 g and the “Average Wet Weight (g) of Muscles” value ([1]; One Week Treated, SOLEUS) was 0.335 g. For the same molecule, the “Average Wet Weight (g) of Muscles” value ([1]; Six Month Treated, E.D.L.) was 0.163 g, the “Average Wet Weight (g) of Muscles” value [1, 5] was 1.577 g and the “Average Wet Weight (g) of Muscles” value ([1]; Six Month Treated, SOLEUS) was 0.306 g. For the same molecule, the “Average Wet Weight (g) of Muscles” value ([1]; Three Month Treated, E.D.L.) was 0.178 g, the “Average Wet Weight (g) of Muscles” value [1, 6] was 1.563 g and the “Average Wet Weight (g) of Muscles” value ([1]; Three Month Treated, SOLEUS) was 0.248 g. For the same molecule, the “Average Wet Weight (g) of Muscles” value ([1]; Two Months Treated, E.D.L.) was 0.202 g, the “Average Wet Weight (g) of Muscles” value ([1]; Two Months Treated, GASTROCNEMIUS) was 1.371 g and the “Average Wet Weight (g) of Muscles” value ([1]; Two Months Treated, SOLEUS) was 0.425 g. The “average wet weight in grams in treated muscles” value ([1]; all time periods and muscles, vs. control) was “significantly greater than control”, the “% Weight (+)gain or (-)loss Treated vs. Control” value ([1]; One Month, E.D.L.) was “+62%” and the “% Weight (+)gain or (-)loss Treated vs. Control” value ([1]; One Month, GASTROCNEMIUS) was “+30%”. For the same molecule, the “% Weight (+)gain or (-)loss Treated vs. Control” value ([1]; One Month, SOLEUS) was “+19%”, the “% Weight (+) gain (-) loss Treated vs. control” value ([1]; E.D.L.) was “+18%” and the “% Weight (+) gain (-) loss Treated vs. control” value ([1]; GASTROCNEMIUS) was “+37%”. For the same molecule, the “% Weight (+) gain (-) loss Treated vs. control” value ([1]; SOLEUS) was “+13%”, the “% Weight (+)gain or (-)loss Treated vs. Control” value ([1]; Six Month, E.D.L.) was “+18%” and the “% Weight (+)gain or (-)loss Treated vs. Control” value ([1]; Six Month, GASTROCNEMIUS) was “+15%”. The “% Weight (+)gain or (-)loss Treated vs. Control” value ([1]; Six Month, SOLEUS) was “+23%”, the “% Weight (+)gain or (-)loss” value ([1]; E.D.L.) was “+13%” and the “% Weight (+)gain or (-)loss” value ([1]; GASTROCNEMIUS) was “+18%”. For the same molecule, the “% Weight (+)gain or (-)loss” value ([1]; SOLEUS) was “+9%”, the “% Weight (+)gain or (-)loss Treated vs. Control” value ([1]; Two Months, E.D.L.) was “+43%” and the “% Weight (+)gain or (-)loss Treated vs. Control” value ([1]; Two Months, GASTROCNEMIUS) was “+14%”. For the same molecule, the “% Weight (+)gain or (-)loss Treated vs. Control” value ([1]; Two Months, SOLEUS) was “+9%”, the “Average Myofiber Diameter (µm) by Light Microscopy” value (“Average Myofiber Diameter (µm)” for short) ([2]; One Month Treated, E.D.L.) was 34.1 µm and the “Average Myofiber Diameter (µm)” value [2, 3] was 34.5 µm. For the same molecule, the “Average Myofiber Diameter (µm)” value ([2]; One Month Treated, SOLEUS) was 39.4 µm, the “Average Myofiber Diameter (µm)” value ([2]; One Week Treated, E.D.L.) was 44.6 µm and the “Average Myofiber Diameter (µm)” value [2, 4] was 62.3 µm. For the same molecule, the “Average Myofiber Diameter (µm)” value ([2]; One Week Treated, SOLEUS) was 49.2 µm, the “Average Myofiber Diameter (µm)” value ([2]; Six Month Treated, E.D.L.) was 75.3 µm and the “Average Myofiber Diameter (µm)” value [2, 5] was 73.1 µm. For the same molecule, the “Average Myofiber Diameter (µm)” value ([2]; Six Month Treated, SOLEUS) was 79.5 µm, the “Average Myofiber Diameter (µm)” value ([2]; Three Month Treated, E.D.L.) was 44.3 µm and the “Average Myofiber Diameter (µm)” value [2, 6] was 57.2 µm. The “Average Myofiber Diameter (µm)” value ([2]; Three Month Treated, SOLEUS) was 47.9 µm, the “Average Myofiber Diameter (µm)” value ([2]; Two Month Treated, E.D.L.) was 28.9 µm and the “Average Myofiber Diameter (µm)” value ([2]; Two Month Treated, GASTROCNEMIUS) was 35.4 µm. The “Average Myofiber Diameter (µm)” value ([2]; Two Month Treated, SOLEUS) was 42.3 µm, the “% Difference Treated vs. Control” value ([2]; One Month, E.D.L.) was “+7%” and the “% Difference Treated vs. Control” value ([2]; One Month, GASTROCNEMIUS) was “+3%”. The “% Difference Treated vs. Control” value ([2]; One Month, SOLEUS) was “+24%”, the “% Difference Treated vs. Control” value ([2]; One Week, E.D.L.) was “+5%” and the “% Difference Treated vs. Control” value ([2]; One Week, GASTROCNEMIUS) was “+23%”.
